Data taken from patent US4898858A, “Cephalosporin derivatives and antibiotics containing the same” (Meiji Seika Kaisha Ltd., priority 1985, dated 1990).
In brackets after ≈: the same amount, converted by molar mass. Like-named read-outs stand apart in the source and are kept apart here.

Key:
Proteus rettgeri J-0026 = test: minimum growth-inhibitory concentration (MIC) in vitro; assay type: cell-based; conditions: Providencia rettgeri, J0026
[1] = test system: Pseudomonas aeruginosa E-2; test: as above; assay type: cell-based; conditions: E2
[2] = test system: Pseudomonas aeruginosa MB-3833; test: as above; assay type: cell-based; conditions: MB3833
[3] = test system: Staphylococcus aureus 606; test: as above; assay type: cell-based
Escherichia coli ML1410 = test: as above; assay type: cell-based
[4] = test system: Serratia marcescens GN-629; test: as above; assay type: cell-based; conditions: GN629
Proteus vulgais GN-76 = test: as above; assay type: cell-based
[5] = test system: Salmonella typhimurium LT-2; test: as above; assay type: cell-based; conditions: Salmonella enterica
[6] = test system: Enterobacter Cloacae G-0008; test: as above; assay type: cell-based
[7] = test system: Klebsiella pneumoniae GN-69; test: as above; assay type: cell-based
[8] = test system: Pseudomonas aeruginosa GN-10362; test: as above; assay type: cell-based; conditions: GN10362
[9] = test system: Serratia marcescens GN-10857; test: as above; assay type: cell-based; conditions: GN10857
[10] = test system: Staphylococcus aureus 209P JC-1; test: as above; assay type: cell-based
[11] = test system: Streptocuccus faecalis W-75; test: as above; assay type: cell-based
[12] = test system: Klebsiella pneumoniae GN-118; test: as above; assay type: cell-based; conditions: GN118
Proteus morganii 1510 = test: as above; assay type: cell-based; conditions: Morganella morganii
[13] = test system: Enterobacter Cloacae G-0005; test: as above; assay type: cell-based
[14] = test system: Salmonella enteritidis No.11; test: as above; assay type: cell-based; conditions: Salmonella enterica
[15] = test system: Staphylococcus aureus 606 E-25; test: as above; assay type: cell-based; conditions: 606E25
[16] = test system: Proteus vulgais GN-76/C-1; test: as above; conditions: for MIC: Proteus vulgaris, GN76, read-out: MIC-value
Escherichia coli No.29 = test: as above; assay type: cell-based
Proteus rettgeri GN-624 = test: as above; assay type: cell-based; conditions: Providencia rettgeri, GN624
[17] = test system: Escherichia coli NIHJ JC-2; test: as above; assay type: cell-based
Pseudomonas aeniginosa = test: MIC, comparison of the compounds of the present invention and the relevant compounds; assay type: cell-based; conditions: Table 2, strain not given, by substituent B
[18] = GN69, Klebsiella pneumoniae GN-69, in vitro, read-out: MIC-value
[19] = NIHJJC2, Escherichia coli NIHJ JC-2, in vitro, read-out: MIC-value

SMILES	MIC (Proteus rettgeri J-0026) [µg/mL]	MIC [1] [µg/mL]	MIC [2] [µg/mL]	MIC [3] [µg/mL]	MIC (Escherichia coli ML1410) [µg/mL]	MIC [4] [µg/mL]	MIC (Proteus vulgais GN-76) [µg/mL]	MIC [5] [µg/mL]	MIC [6] [µg/mL]	MIC [7, 18] [µg/mL]	MIC [8] [µg/mL]	MIC [9] [µg/mL]	MIC [11] [µg/mL]	MIC [12] [µg/mL]	MIC (Proteus morganii 1510) [µg/mL]	MIC [13] [µg/mL]	MIC [14] [µg/mL]	MIC [15] [µg/mL]	MIC [16] [µg/mL]	MIC (Proteus rettgeri GN-624) [µg/mL]	further results
CC(O/N=C(\C(=O)N[C@@H]1C(=O)N2C(C(=O)[O-])=C(CSc3cc[n+](CCF)cc3)CS[C@H]12)c1csc(N)n1)C(=O)O (stereo partly drawn) [Example 1, (6R,7R)-7-{(Z)-2-(2-Aminothiazol-4-yl)-2-(1-carboxyethoxyimino)acetamido}-3-[{1-(2-fluoroethyl)pyridinium}-4-ylthiomethyl]-ceph-3-em-4-carboxylate]	0.1 (≈ 0.164 µM)	1.56 (≈ 2.55 µM)	1.56 (≈ 2.55 µM)	3.13 (≈ 5.13 µM)	0.1 (≈ 0.164 µM)	0.1 (≈ 0.164 µM)	0.05 (≈ 0.0819 µM)	< 0.025	0.1 (≈ 0.164 µM)	< 0.025	1.56 (≈ 2.55 µM)	0.78 (≈ 1.28 µM)	3.13 (≈ 5.13 µM)	< 0.025	1.56 (≈ 2.55 µM)	0.05 (≈ 0.0819 µM)	< 0.025	3.13 (≈ 5.13 µM)	0.1 (≈ 0.164 µM)	0.05 (≈ 0.0819 µM)	MIC [10]: 3.13 µg/mL (≈ 5.13 µM); MIC (Escherichia coli No.29): 0.1 µg/mL (≈ 0.164 µM); MIC [17, 19]: 0.1 µg/mL (≈ 0.164 µM)
C[C@@H](O/N=C(\C(=O)N[C@@H]1C(=O)N2C(C(=O)[O-])=C(CSc3cc[n+](CCF)cc3)CS[C@H]12)c1csc(N)n1)C(=O)O [Example 2, (6R,7R)-7-[(Z)-2-(2-Aminothiazol-4-yl)-2-{(1R)-carboxyethoxyimino}acetamido]-3-[{1-(2-fluoroethyl)pyridinium}-4-ylthiomethyl]-ceph-3-em-4-carboxylate]	0.2 (≈ 0.328 µM)	3.13 (≈ 5.13 µM)	3.13 (≈ 5.13 µM)	6.25 (≈ 10.2 µM)	0.2 (≈ 0.328 µM)	0.39 (≈ 0.639 µM)	0.1 (≈ 0.164 µM)	0.05 (≈ 0.0819 µM)	0.2 (≈ 0.328 µM)	0.05 (≈ 0.0819 µM)	3.13 (≈ 5.13 µM)	3.13 (≈ 5.13 µM)	3.13 (≈ 5.13 µM)	0.05 (≈ 0.0819 µM)	1.56 (≈ 2.55 µM)	0.2 (≈ 0.328 µM)	< 0.025	6.25 (≈ 10.2 µM)	0.1 (≈ 0.164 µM)	0.1 (≈ 0.164 µM)	MIC [10]: 3.13 µg/mL (≈ 5.13 µM); MIC (Escherichia coli No.29): 0.1 µg/mL (≈ 0.164 µM); MIC [17, 19]: 0.1 µg/mL (≈ 0.164 µM)
C[C@H](O/N=C(\C(=O)N[C@@H]1C(=O)N2C(C(=O)[O-])=C(CSc3cc[n+](CCF)cc3)CS[C@H]12)c1csc(N)n1)C(=O)O [Example 3, (6R,7R)-7-[(Z)-2-(2-Aminothiazol-4-yl)-2-{(1S)-carboxyethoxyimino}acetamido]-3-[{1-(2-fluoroethyl)pyridinium}-4-ylthiomethyl]-ceph-3-em-4-carboxylate]	0.1 (≈ 0.164 µM)	1.56 (≈ 2.55 µM)	1.56 (≈ 2.55 µM)	3.13 (≈ 5.13 µM)	0.1 (≈ 0.164 µM)	0.2 (≈ 0.328 µM)	< 0.025	< 0.025	0.1 (≈ 0.164 µM)	0.05 (≈ 0.0819 µM)	1.56 (≈ 2.55 µM)	0.78 (≈ 1.28 µM)	1.56 (≈ 2.55 µM)	< 0.025	1.56 (≈ 2.55 µM)	0.05 (≈ 0.0819 µM)	< 0.025	3.13 (≈ 5.13 µM)	0.05 (≈ 0.0819 µM)	0.05 (≈ 0.0819 µM)	MIC [10]: 1.56 µg/mL (≈ 2.55 µM); MIC (Escherichia coli No.29): 0.1 µg/mL (≈ 0.164 µM); MIC [17, 19]: 0.1 µg/mL (≈ 0.164 µM)
CCC(O/N=C(\C(=O)N[C@@H]1C(=O)N2C(C(=O)[O-])=C(CSc3cc[n+](CCF)cc3)CS[C@H]12)c1csc(N)n1)C(=O)O (some centres unmarked) [Example 4]	0.78 (≈ 1.25 µM)	3.13 (≈ 5.01 µM)	3.13 (≈ 5.01 µM)	6.25 (≈ 10 µM)	0.39 (≈ 0.624 µM)	0.78 (≈ 1.25 µM)	0.05 (≈ 0.08 µM)	0.2 (≈ 0.32 µM)	0.39 (≈ 0.624 µM)	0.1 (≈ 0.16 µM)	3.13 (≈ 5.01 µM)	3.13 (≈ 5.01 µM)	6.25 (≈ 10 µM)	0.1 (≈ 0.16 µM)	3.13 (≈ 5.01 µM)	0.39 (≈ 0.624 µM)	< 0.025	6.25 (≈ 10 µM)	0.2 (≈ 0.32 µM)	0.05 (≈ 0.08 µM)	MIC [10]: 6.25 µg/mL (≈ 10 µM); MIC (Escherichia coli No.29): 0.39 µg/mL (≈ 0.624 µM); MIC [17, 19]: 0.39 µg/mL (≈ 0.624 µM)
Nc1nc(/C(=N/OC(C(=O)O)C2CCCCC2)C(=O)N[C@@H]2C(=O)N3C(C(=O)[O-])=C(CSc4cc[n+](CCF)cc4)CS[C@H]23)cs1 (some centres unmarked) [Example 5]	3.13 (≈ 4.61 µM)	12.5 (≈ 18.4 µM)	12.5 (≈ 18.4 µM)	3.13 (≈ 4.61 µM)	3.13 (≈ 4.61 µM)	6.25 (≈ 9.21 µM)	0.78 (≈ 1.15 µM)	3.13 (≈ 4.61 µM)	3.13 (≈ 4.61 µM)	1.56 (≈ 2.3 µM)	12.5 (≈ 18.4 µM)	6.25 (≈ 9.21 µM)	3.13 (≈ 4.61 µM)	1.56 (≈ 2.3 µM)	6.25 (≈ 9.21 µM)	3.13 (≈ 4.61 µM)	0.2 (≈ 0.295 µM)	3.13 (≈ 4.61 µM)	0.78 (≈ 1.15 µM)	0.39 (≈ 0.575 µM)	MIC [10]: 1.56 µg/mL (≈ 2.3 µM); MIC (Escherichia coli No.29): 3.13 µg/mL (≈ 4.61 µM); MIC [17, 19]: 3.13 µg/mL (≈ 4.61 µM)
Nc1nc(/C(=N/OC(CF)C(=O)O)C(=O)N[C@@H]2C(=O)N3C(C(=O)[O-])=C(CSc4cc[n+](CCF)cc4)CS[C@H]23)cs1 (some centres unmarked) [Example 6]	0.2 (≈ 0.318 µM)	1.56 (≈ 2.48 µM)	1.56 (≈ 2.48 µM)	3.13 (≈ 4.98 µM)	0.1 (≈ 0.159 µM)	0.2 (≈ 0.318 µM)	0.05 (≈ 0.0795 µM)	< 0.025	0.1 (≈ 0.159 µM)		3.13 (≈ 4.98 µM)	1.56 (≈ 2.48 µM)	3.13 (≈ 4.98 µM)	< 0.025	0.78 (≈ 1.24 µM)	0.05 (≈ 0.0795 µM)	0.05 (≈ 0.0795 µM)	3.13 (≈ 4.98 µM)	0.1 (≈ 0.159 µM)	< 0.025	MIC ([7]; Klebsiella pneumoniae, GN69, read-out: MIC-value): < 0.025 µg/mL; MIC [10]: 1.56 µg/mL (≈ 2.48 µM); MIC (Escherichia coli No.29): 0.1 µg/mL (≈ 0.159 µM); MIC ([17]; Escherichia coli, NIHJJC2, read-out: MIC-value): 0.05 µg/mL (≈ 0.0795 µM)
C[C@H](O/N=C(\C(=O)N[C@@H]1C(=O)N2C(C(=O)[O-])=C(CSc3cc[n+](C)cc3)CS[C@H]12)c1csc(N)n1)C(=O)O [Example 7, (6R,7R)-7-[(Z)-2-(2-Aminothiazol-4-yl)-2-{(1S)-carboxyethoxyimino}acetamid]-3-(1-methylpyridinium-4-ylthiomethyl)-ceph-3-em-4-carboxylate]	0.1 (≈ 0.173 µM)	0.78 (≈ 1.35 µM)	0.78 (≈ 1.35 µM)	3.13 (≈ 5.41 µM)	0.1 (≈ 0.173 µM)	0.1 (≈ 0.173 µM)	0.025 (≈ 0.0432 µM)	< 0.025	0.1 (≈ 0.173 µM)	< 0.025	0.78 (≈ 1.35 µM)	0.39 (≈ 0.674 µM)	1.56 (≈ 2.7 µM)	< 0.025	1.56 (≈ 2.7 µM)	0.05 (≈ 0.0864 µM)	< 0.025	3.13 (≈ 5.41 µM)	0.05 (≈ 0.0864 µM)	< 0.025	MIC [10]: 1.56 µg/mL (≈ 2.7 µM); MIC (Escherichia coli No.29): 0.1 µg/mL (≈ 0.173 µM); MIC [17, 19]: 0.1 µg/mL (≈ 0.173 µM)
CC[n+]1ccc(SCC2=C(C(=O)[O-])N3C(=O)[C@@H](NC(=O)/C(=N\O[C@@H](C)C(=O)O)c4csc(N)n4)[C@H]3SC2)cc1 [Example 8]	0.05 (≈ 0.0844 µM)	0.78 (≈ 1.32 µM)	0.78 (≈ 1.32 µM)	1.56 (≈ 2.63 µM)	0.1 (≈ 0.169 µM)	0.1 (≈ 0.169 µM)	0.025 (≈ 0.0422 µM)	< 0.025	0.05 (≈ 0.0844 µM)	< 0.025		0.39 (≈ 0.658 µM)	0.78 (≈ 1.32 µM)	< 0.025	0.78 (≈ 1.32 µM)	0.05 (≈ 0.0844 µM)	< 0.025	3.13 (≈ 5.28 µM)	0.05 (≈ 0.0844 µM)	0.05 (≈ 0.0844 µM)	MIC [17, 19]: 0.1 µg/mL (≈ 0.169 µM)
CC[n+]1ccc(SCC2=C(C(=O)[O-])N3C(=O)[C@@H](NC(=O)/C(=N\O[C@H](C)C(=O)O)c4csc(N)n4)[C@H]3SC2)cc1 [Example 9, (6R,7R)-7-[(Z)-2-(2-Aminothiazol-4-yl)-2-{(1R)-carboxyethoxyimino}acetamid]-3-(1-ethylpyridinium-4-ylthiomethyl)-ceph-3-em-4-carboxylate]	0.2 (≈ 0.337 µM)	1.56 (≈ 2.63 µM)	3.13 (≈ 5.28 µM)	6.25 (≈ 10.5 µM)	0.1 (≈ 0.169 µM)	0.39 (≈ 0.658 µM)	0.1 (≈ 0.169 µM)	0.05 (≈ 0.0844 µM)	0.1 (≈ 0.169 µM)	0.05 (≈ 0.0844 µM)	3.13 (≈ 5.28 µM)	1.56 (≈ 2.63 µM)	6.25 (≈ 10.5 µM)	0.05 (≈ 0.0844 µM)	0.78 (≈ 1.32 µM)	0.2 (≈ 0.337 µM)	< 0.025	6.25 (≈ 10.5 µM)	0.1 (≈ 0.169 µM)	< 0.025	MIC [10]: 3.13 µg/mL (≈ 5.28 µM); MIC (Escherichia coli No.29): 0.1 µg/mL (≈ 0.169 µM); MIC [17, 19]: 0.1 µg/mL (≈ 0.169 µM)
C[C@H](O/N=C(\C(=O)N[C@@H]1C(=O)N2C(C(=O)[O-])=C(CSc3cc[n+](C)cc3)CS[C@H]12)c1csc(N)n1)C(=O)O [drawing 15]																					MIC (Pseudomonas aeniginosa): 0.78 µg/mL (≈ 1.35 µM); MIC-value ([16]; Table 2, Proteus vulgaris GN76/C-1, by substituent B): 0.05 µg/mL (≈ 0.0864 µM)
